Measurements taken from patent US11179450B2, “Long chain antigen containing interepitope sequence that promotes antigen presentation to T cells” (MIE UNIVERSITY, priority 2013, dated 2021).

Experiments:
[1] = tested on: F4/80+ cells (macrophages); test: In vitro uptake of FAM-labeled long chain peptide antigens by antigen-presenting cells (macrophages); type: cell-based; conditions: FIG. 8, complexed with CHP, 10 μg/mL, mouse spleen cells, 60 minutes, in comparison to G6 and P6
Text: Long chain peptide antigens MEN, all containing three types of mouse CD8+ T cell epitope sequences (MA p265 (Sequence No. 27), NY p81 (Sequence No. 29), and mERK2 9m (Sequence No. 28)), were synthesized. The interepitope sequences between the respective epitopes were respectively six consecutive tyrosines (Y6), six consecutive glycines (G6), or six consecutive prolines (P6) (Sequence Nos. 1-3). Each long chain peptide antigen, labeled with the fluorescent dye FAM, was complexed with CHP and administered in vitro to mouse dendritic cells and mouse macrophages. After 60 minutes, the fluorescence uptakes into the respective cells were measured by flow cytometry with the P5 fraction in the figure being deemed to correspond to the dendritic cells and the P6 fraction in the figure being deemed to correspond to the macrophages.
In vitro uptake of the long chain peptide antigens by antigen-presenting cells was measured as follows. Each long chain peptide labeled with a fluorescent dye was complexed with CHP by the method described above. Spleen cells separated from a normal mouse were added at 1×10^6 cells/0.5 mL/well to a 24-well plate. […] The uptake of the fluorescence-labeled long chain peptide antigens by CD11c^+ cells (dendritic cells) and F4/80^+ cells (macrophages) were observed using flow cytometry.

[2] = tested on: CD8+ T cells specific to MA p265, NY p81 and mERK2 9m; test: Specific CD8+ T cell induction by CHP/long chain peptide vaccines in mice, intracellular cytokine staining of spleen cells; type: in vivo, BALB/c mice
Text: Long chain peptide antigens MEN, all containing three types of mouse CD8+ T cell epitope sequences (MA p265 (Sequence No. 27), NY p81 (Sequence No. 29), and mERK2 9m (Sequence No. 28)), were synthesized. The interepitope sequences between the respective epitopes were respectively six consecutive tyrosines (Y6) (Sequence No. 1), six consecutive glycines (G6) (Sequence No. 2), six consecutive prolines (P6) (Sequence No. 3), or six consecutive threonines (T6) (Sequence No. 4). Each long chain peptide antigen was complexed with cholesterol-modified pullulan (CHP), which is a type of delivery system, and administered as a vaccine to a mouse. In the process of administration, CpG oligo DNA was coadministered as an adjuvant. Spleen cells were collected one week after the final administration and the frequencies of CD8+ T cells specific to the respective epitope sequences were measured by an intracellular cytokine staining method.
Long chain peptide antigens NME, all containing three types of mouse CD8+ T cell epitope sequences (MA p265 (Sequence No. 27), NY p81 (Sequence No. 29), and mERK2 9m (Sequence No. 28)), were synthesized. The antigens differ from the MEN sequences shown in FIG. 1 in the order of the three types of epitopes. The interepitope sequences between the respective epitopes were respectively six consecutive tyrosines (Y6) (Sequence No. 5), six consecutive glycines (G6) (Sequence No. 6), or six consecutive prolines (P6) (Sequence No. 7). Vaccines containing the respective long chain peptide antigens were administered to mice in the same manner as in FIG. 1 and the frequencies of CD8+ T cells specific to the respective epitope sequences were measured by the intracellular cytokine staining method.
Long chain peptide antigens MEN, ENM, and NME, all containing three types of mouse CD8+ T cell epitope sequences (MA p265 (Sequence No. 27), NY p81 (Sequence No. 29), and mERK2 9m (Sequence No. 28)), were synthesized. MEN, ENM, and […] in the order of the three types of epitopes. The interepitope sequences between the respective epitopes were each six consecutive tyrosines (Y6) (Sequence Nos. 1, 5 and 8). Vaccines containing the respective long chain peptide antigens were administered to mice in the same manner as in FIG. 1 and the frequencies of CD8+ T cells specific to the respective epitope sequences were measured by the intracellular cytokine staining method.
Each long chain peptide was dissolved in dimethyl sulfoxide (DMSO) at a concentration of 10 mg/mL. CHP was dissolved in 6 M urea-containing phosphate buffered saline (PBS) at a concentration of 10 mg/mL 1 mL (10 mg) of the long chain peptide solution and 20 mL (200 mg) of the CHP solution were mixed and left to stand at room temperature overnight in a dark place. The liquid mixture was transferred into a dialysis membrane (molecular weight cutoff: 3,500; Thermo Fisher Scientific, Inc.) and dialyzed for 2 hours to overnight at 4° C. against 0.6 M urea-containing PBS of a volume ratio of not less than 100 times as the dialysis outer solution. Dialysis was then performed for 2 hours to overnight at 4° C. against 0.06 M urea-containing PBS of a volume ratio of not less than 100 times as the dialysis outer solution. Dialysis was performed again for 2 hours to overnight at 4° C. against PBS of a volume ratio of not less than 100 times as the dialysis outer solution. The dialyzed inner solution was collected, filtered through a filtration sterilization filter of 0.45 μm or 0.22 μm pore size, and thereafter the UV absorption at 280 nm was measured to determine the final concentration of the long chain peptide from its molecular extinction coefficient.
Each CHP/long chain peptide complex as the vaccine and the CpG oligo DNA as the adjuvant were administered at the same time to a mouse. Administration was performed by subcutaneous injection on the back of the mouse. […]

SNPARYEFLYYYYYYQYIHSANVLYYYYYYRGPESRLL (Long chain peptide antigen, containing three types of mouse CD8+ T cell epitope sequences (MA p265, NY p81, and mERK2 9m)) [MEN(Y6)]
fluorescence uptake into macrophages [1]: significantly higher
induction of specific CD8+ T cells corresponding to all three types of epitopes ([2]; FIG. 1, MEN antigens complexed with CHP, subcutaneous, CpG oligo DNA adjuvant, spleen cells one week after final administration): clearly induced
induction of specific CD8+ T cells corresponding to all three types of epitopes ([2]; FIG. 4, MEN, ENM, NME epitope orders, interepitope sequence fixed at Y6): clearly induced
number of tyrosines of the interepitope sequence, judged in view of the results for the three types of epitopes ([2]; FIG. 6, comparing one to six tyrosines): best
number of tyrosines of the interepitope sequence, judged in view of the results for the three types of epitopes ([2]; FIG. 7, comparing five to ten tyrosines): best
